From PubChem BioAssay AID602326 (NMMLSC, 2012)
Calls of active or inactive are those of the source. No rule for the calls is given here.

Molecular target: Lethal factor (Bacillus anthracis) (UniProt P15917)
Test: Bacillus anthracis lethal factor protease inhibitors, multiplex microsphere substrate cleavage, dose response confirmation (AID 602326)
Conditions: multiplex microsphere protease substrate cleavage assay

Chain of Lethal factor (Bacillus anthracis) (P15917 whole entry, looked up): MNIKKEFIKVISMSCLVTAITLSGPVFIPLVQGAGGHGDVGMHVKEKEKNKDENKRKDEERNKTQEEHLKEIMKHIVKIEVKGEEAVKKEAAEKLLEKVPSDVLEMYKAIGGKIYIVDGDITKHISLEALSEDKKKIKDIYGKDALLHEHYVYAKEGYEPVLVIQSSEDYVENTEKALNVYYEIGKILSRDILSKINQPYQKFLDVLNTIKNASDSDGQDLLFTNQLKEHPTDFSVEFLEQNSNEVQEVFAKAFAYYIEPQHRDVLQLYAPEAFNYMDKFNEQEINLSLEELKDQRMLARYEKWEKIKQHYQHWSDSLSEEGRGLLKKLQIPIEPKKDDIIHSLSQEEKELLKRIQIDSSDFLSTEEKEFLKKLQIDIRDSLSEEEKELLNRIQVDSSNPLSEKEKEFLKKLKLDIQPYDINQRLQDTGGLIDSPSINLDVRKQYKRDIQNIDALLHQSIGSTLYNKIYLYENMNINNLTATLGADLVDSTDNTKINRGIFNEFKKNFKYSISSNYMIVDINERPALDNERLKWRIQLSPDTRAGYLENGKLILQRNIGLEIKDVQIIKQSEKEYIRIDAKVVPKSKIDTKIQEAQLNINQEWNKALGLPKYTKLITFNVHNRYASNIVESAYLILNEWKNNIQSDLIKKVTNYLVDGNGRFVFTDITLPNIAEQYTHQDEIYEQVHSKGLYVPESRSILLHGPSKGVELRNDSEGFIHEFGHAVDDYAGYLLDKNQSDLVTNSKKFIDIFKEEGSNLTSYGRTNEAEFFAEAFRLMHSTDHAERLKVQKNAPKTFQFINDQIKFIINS

Row | SMILES | EC50
1 | O=c1c(/C=C(\O)c2ccccc2)nc2ccccc2n1-c1ccccc1 | > 20 µM (inactive)
2 | Oc1[nH]c(N=C2N=c3ccccc3=N2)c2ccccc12 | > 20 µM (inactive)
